Assay results: ChEMBL document CHEMBL5528022, “Discovery of a brain-permeable bromodomain and extra terminal domain (BET) inhibitor with selectivity for BD1 for the treatment of multiple sclerosis” (Eur J Med Chem, 2024)
Active and inactive are the calls of the source. The calls are words filed in the database; no cut-off is given here.

Columns and labels:
[1] = target: T1, Bromodomain-containing protein 4 (Homo sapiens, UniProt O60885); test: Binding affinity to BRD4 BD1 (unknown origin) expressed in Escherichia coli BL21 (DE3) at 1:1 protein:compound ratio by MST assay
[2] = target: T1, Bromodomain-containing protein 4; test: Binding affinity to BRD4 BD2 (unknown origin) expressed in Escherichia coli BL21 (DE3) at 1:1 protein:compound ratio by MST assay
[3] = Selectivity ratio of Kd for binding affinity to BRD4 BD2 (unknown origin) by MST assay to Kd for binding affinity to BRD4 BD1 (unknown origin) by MST assay
Microglia = test: Antiinflammatory activity against LPS induced neonatal rat cerebral cortex microglia by immunofluorescence assay; type: functional, cell-based
Mus musculus [4] = test: (§1) Anti-inflammatory activity in complete Freund's adjuvant/MOG (35 to 55 residues)/pertussis toxin-induced experimental autoimmune encephalomyelitis C57BL/6 mouse model assessed as reduction in clinical scores at 30 mg/kg, ip bid administered 6 days post immunization and measured every 3 days for 28 days post immunization; type: functional, organism-based; settings: time 22.0 day
Mus musculus [5] = test: as §1, with “change” for “reduction”, “cumulative” for “clinical”; type: functional, organism-based; settings: time 22.0 day
Mus musculus [6] = test: as §1, with “TNF-alpha level” for “clinical scores”; type: functional, organism-based; settings: time 22.0 day
Mus musculus [7] = test: as §1, with “IL-6 level” for “clinical scores”; type: functional, organism-based; settings: time 22.0 day
Mus musculus [8] = test: (§2) Anti-inflammatory activity in complete Freund's adjuvant/MOG (35 to 55 residues)/pertussis toxin-induced experimental autoimmune encephalomyelitis C57BL/6 mouse model assessed as appearance of normal myelin structure at 30 mg/kg, ip bid administered 6 days post immunization and measured every 3 days for 28 days post immunization by Luxol fast blue staining based bright field fluorescence microscopic analysis; type: functional, organism-based; settings: time 22.0 day
Mus musculus [9] = test: as §2, with “as” for “as appearance of normal”, “density” for “structure”, “60” for “30”; type: functional, organism-based; settings: time 22.0 day

| Kd [1] [nM] | Kd [2] [µM] | Selectivity ratio [3] | Structure (SMILES) | Activity (Microglia) | Activity (Mus musculus [4]) | Activity (Mus musculus [5]) | Activity (Mus musculus [6]) | Activity (Mus musculus [7]) | Activity (Mus musculus [8]) | Activity (Mus musculus [9]) |
| --- | --- | --- | --- | --- | --- | --- | --- | --- | --- | --- |
| 690 | 31 | 46 | Cc1c(-c2cncc(-c3ccnc4nc[nH]c34)c2)cnn1C | – | – | – | – | – | – | – |
| – | – | – | COC(=O)/C=C/C(=O)OC | Active | Active | Active | Active | Active | Active | Active |
| 180 | 3.1 | 17 | Cc1nn(C)c(C)c1-c1cc2c(c(-c3ccnc4nc[nH]c34)c1)OCC2 | – | – | – | – | – | – | – |
